The supplement of paper PMC10307832

Columns and labels:
Assay in all cases: relative viability (nuclei count vs DMSO), 5 days (fraction); higher = more cells survive
RAF265 + OSI-027 = compound: Cn1c(Nc2ccc(C(F)(F)F)cc2)nc2cc(Oc3ccnc(-c4ncc(C(F)(F)F)[nH]4)c3)ccc21 [RAF265] + COc1cccc2cc(-c3nc([C@H]4CC[C@H](C(=O)O)CC4)n4ncnc(N)c34)[nH]c12 [OSI-027] (partner 0.5 µM)
Method in brief: (§1)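 Relative viability was taken as the ratio of nuclei in treated wells to nuclei in vehicle wells. Lung cancer cell lines in 1536-well plates received compounds by pin tool one day after seeding, either one drug alone or a fixed anchor-drug dose plus five library-drug doses (not always all listed) in √10 steps. Nuclei were counted on 4× images after 5 days of treatment, and values are medians of duplicate plates.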

IPA-3 + OSI-027 = compound: C1=CC=C2C(=C1)C=CC(=C2SSC3=C(C=CC4=CC=CC=C43)O)O [IPA-3] + COc1cccc2cc(-c3nc([C@H]4CC[C@H](C(=O)O)CC4)n4ncnc(N)c34)[nH]c12 [OSI-027] (partner 0.5 µM)
Method in brief: as §1

RAF265 + Phenformin = compound: Cn1c(Nc2ccc(C(F)(F)F)cc2)nc2cc(Oc3ccnc(-c4ncc(C(F)(F)F)[nH]4)c3)ccc21 [RAF265] + N=C(N)NC(=N)NCCc1ccccc1 [Phenformin] (partner 250 µM)
Method in brief: as §1

Doramapimod + AZD7762 = compound: Cc1ccc(-n2nc(C(C)(C)C)cc2NC(=O)Nc2ccc(OCCN3CCOCC3)c3ccccc23)cc1 [Doramapimod] + NC(=O)Nc1cc(-c2cccc(F)c2)sc1C(=O)N[C@H]1CCCNC1 [AZD7762] (partner 0.2 µM)
Method in brief: as §1

Cell Line	relative viability (RAF265 + OSI-027; first compound 0.01 µM)	relative viability (RAF265 + OSI-027; first compound 0.03162 µM)	relative viability (RAF265 + OSI-027; first compound 0.1 µM)	relative viability (RAF265 + OSI-027; first compound 0.3162 µM)	relative viability (RAF265 + OSI-027; first compound 1 µM)	relative viability (IPA-3 + OSI-027; first compound 0.2 µM)	relative viability (IPA-3 + OSI-027; first compound 0.6325 µM)	relative viability (IPA-3 + OSI-027; first compound 2 µM)	relative viability (IPA-3 + OSI-027; first compound 6.325 µM)	relative viability (IPA-3 + OSI-027; first compound 20 µM)	relative viability (RAF265 + Phenformin; first compound 0.01 µM)	relative viability (RAF265 + Phenformin; first compound 0.03162 µM)	relative viability (RAF265 + Phenformin; first compound 0.1 µM)	relative viability (RAF265 + Phenformin; first compound 0.3162 µM)	relative viability (RAF265 + Phenformin; first compound 1 µM)	relative viability (Doramapimod + AZD7762; first compound 0.02 µM)	relative viability (Doramapimod + AZD7762; first compound 0.06325 µM)	relative viability (Doramapimod + AZD7762; first compound 0.2 µM)	relative viability (Doramapimod + AZD7762; first compound 0.6325 µM)	relative viability (Doramapimod + AZD7762; first compound 2 µM)
SK-LU-1	0.349	0.254	0.224	0.232	0.193	0.361	0.347	0.341	0.345	0.354	0.543	0.377	0.385	0.26	0.234					
LOU-NH91	0.703	0.653	0.737	0.45	0.486	0.709	0.732	0.811	0.73	0.776	0.86	0.639	0.721	0.64	0.52	0.757	0.739	0.7	0.744	0.575
LXF-289	0.836	0.813	0.59	0.326	0.2	0.909	0.722	0.696	0.847	0.911	0.52	0.526	0.476	0.372	0.338	1.07	1.16	1.14	1.1	1.12
HARA	0.491	0.417	0.423	0.187	0.101	0.605	0.45	0.479	0.396	0.606	0.498	0.345	0.445	0.39	0.329	0.341	0.235	0.397	0.536	0.213
LU99A	0.299	0.274	0.27	0.258	0.205	0.273	0.323	0.286	0.323	0.315	0.817	0.821	0.679	0.571	0.375	0.349	0.37	0.339	0.339	0.326
201T	0.794	0.799	0.788	0.58	0.351	0.741	0.683		0.743	0.755	0.392	0.422	0.453	0.434	0.38	0.516	0.562	0.447	0.504	0.341
HCC-827	0.754	0.783	0.708		0.649	0.842	0.69	0.773	0.724	0.703	0.431	0.444	0.41		0.398	0.281	0.3	0.195	0.588	0.116
NCI-H1666	0.89	0.716	0.774	0.739	0.598	0.976	0.839	0.828	0.743	0.87	0.597	0.343	0.567	0.579	0.559	0.9	0.943	1.01	0.975	0.851
NCI-H1915	0.674	0.492	0.339	0.217	0.176	0.567	0.564	0.626	0.582	0.61	0.364	0.341	0.265	0.203	0.183	0.694	0.734	0.771	0.82	0.664
NCI-H2009	0.581	0.414	0.328	0.365	0.318	0.918	0.6	0.649	0.59	0.359	0.479	0.416	0.407	0.468	0.38					
ChaGo-K-1	0.563	0.628	0.5	0.44	0.38	0.708	0.551	0.574	0.603	0.628	0.519	0.511	0.392	0.405	0.382	0.884	0.846	0.894	0.779	0.768
COR-L 105	0.798	0.676	0.608	0.315	0.43	0.9	0.569	0.603	0.74	0.738	0.463	0.621	0.457	0.3	0.358					
NCI-H2170	0.74	0.512	0.623	0.333	0.452	0.733	0.691	0.721	0.672	0.677	0.408	0.38	0.453	0.319	0.366	0.828	0.948	0.889	1.07	0.851
A549											0.148	0.123	0.201	0.0774	0.0726					
SW 1573	0.697	0.521	0.418	0.347	0.249	0.867	0.385	0.528	0.634	0.183	0.373	0.336	0.353	0.296	0.265					
NCI-H1975	0.682	0.601	0.348	0.261	0.178	0.936	0.732	0.675	0.762	0.706	0.386	0.343	0.284	0.251	0.205	0.863	0.874	0.871	0.665	0.787
SW 900	0.569	0.661	0.464	0.378	0.391	0.759	0.611	0.6	0.556	0.409	0.73	0.491	0.665	0.283	0.293	0.569	0.72	0.551	0.76	0.486
NCI-H1623	0.462	0.43	0.467	0.291	0.364	0.466	0.436	0.431	0.413	0.375	0.652	0.578	0.646		0.388					
